{"source": "ChEMBL document CHEMBL4014297", "about": "“Discovery of small molecule inhibitors for the snake venom metalloprotease BaP1 using in silico and in vitro tests” (Bioorg Med Chem Lett, 2017)", "key": {"[1]": {"molecular_target": "T1, Snake venom metalloproteinase BaP1 (Bothrops asper) (UniProt P83512)", "T1 sequence (whole entry)": "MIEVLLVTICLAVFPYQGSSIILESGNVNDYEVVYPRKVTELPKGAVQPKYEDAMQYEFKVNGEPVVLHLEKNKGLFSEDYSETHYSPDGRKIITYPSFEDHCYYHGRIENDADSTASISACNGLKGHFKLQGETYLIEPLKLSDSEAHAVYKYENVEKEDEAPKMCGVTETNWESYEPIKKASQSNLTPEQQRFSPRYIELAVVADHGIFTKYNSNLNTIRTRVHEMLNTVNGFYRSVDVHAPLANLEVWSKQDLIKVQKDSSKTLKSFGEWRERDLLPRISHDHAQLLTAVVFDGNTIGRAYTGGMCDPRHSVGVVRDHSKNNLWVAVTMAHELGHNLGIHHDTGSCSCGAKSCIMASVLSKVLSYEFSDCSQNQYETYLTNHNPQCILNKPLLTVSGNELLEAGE", "assay": "Binding affinity to Bothrops asper venom metalloprotease BaP1 by fluorescence spectroscopic method"}, "[2]": {"molecular_target": "T1, Snake venom metalloproteinase BaP1 (Bothrops asper)", "assay": "Binding affinity to Bothrops asper venom metalloprotease BaP1 assessed as red shift by fluorescence spectroscopic method"}, "[3]": {"molecular_target": "T2, Snake venom metalloproteinase BaP1 (Bothrops asper, UniProt P83512)", "T2 sequence (P83512 whole entry)": "T1 sequence (whole entry)", "assay": "Inhibition of Bothrops asper venom metalloprotease BaP1 assessed as reduction in proteolytic activity using azocasein as substrate measured after 90 mins by colorimetric method"}, "[4]": {"molecular_target": "T2, Snake venom metalloproteinase BaP1", "assay": "Binding affinity to Bothrops asper venom metalloprotease BaP1 assessed as Stern-Volmer quenching constant by fluorescence spectroscopic method"}, "[5]": {"molecular_target": "T1, Snake venom metalloproteinase BaP1 (Bothrops asper)", "assay": "Inhibition of Bothrops asper venom metalloprotease BaP1 assessed as reduction in proteolytic activity at 100 umol/dm3 using azocasein as substrate measured after 90 mins by colorimetric method relative to control"}}, "note": "Calls of active or inactive are those of the source. No cut-off for these calls is given here."}
{"smiles": "CC(C)c1ccc(OCC(=O)N/N=C2\\C(=O)NC(=O)N=C2O)cc1", "values": [{"measurement": "Activity", "setting": "[1]", "result": "Active"}, {"measurement": "Activity", "setting": "[2]", "result": 7, "unit": "nm"}, {"measurement": "IC50", "setting": "[3]", "result": 17, "unit": "µM"}, {"measurement": "Kd", "setting": "[4]", "result": 33.6, "unit": "µM"}, {"measurement": "inhibition", "setting": "[5]", "result": 95, "unit": "%"}]}
{"smiles": "Cc1ccc(OCC(=O)N/N=C2\\C(=O)NC(=O)N=C2O)cc1", "values": [{"measurement": "Activity", "setting": "[1]", "result": "Active"}, {"measurement": "Activity", "setting": "[2]", "result": 11, "unit": "nm"}, {"measurement": "IC50", "setting": "[3]", "result": 20, "unit": "µM"}, {"measurement": "Kd", "setting": "[4]", "result": 37.1, "unit": "µM"}, {"measurement": "inhibition", "setting": "[5]", "result": 98, "unit": "%"}]}
